According to patent publication US20240390490A1, “PHARMACEUTICAL COMPOSITIONS FOR THE TREATMENT OF CANCERS” (Rutgers, The State University of New Jersey, priority 2021, published 2024):

What was measured:
[1] = system: MDA-MB-231, MDA-MB-468, and T47D cells; experiment: Transwell cell migration assay; assay type: cell-based, human; settings: 100 μM, 12 hours
Procedure: Cell migration assay was performed following the procedure described previously (26). In brief, the upper insert chambers (8-μm pore polycarbonate membrane) were seeded with cells at a density of 5×10^4 cells (cell numbers established by preliminary experiments) per well in the appropriate serum-free medium. A 10% FBS-containing media was then added to the lower chamber to serve as a chemoattractant. […] The photographs were used to count the number of migrated cells in Adobe Photoshop.

[2] = system: MDA-MB-231-cell-derived xenografts; experiment: Survival study of nude rats inoculated with MDA-MB-231 cells; assay type: in vivo, rat; settings: Kaplan-Meier; control animals about 28 days
Procedure: For the following study and survival study, MDA-MB 231 cells (ATCC) were grown until about 90% confluence just 1 day before injection. On the day of injection, after checking cell viability with trypan blue, MDA-MB 231 cells were diluted in PBS at a final concentration of 1×10^7 cells/rat in 200-μl of PBS-50% Matrigel (BD Biosciences, San Jose, CA) mixture and injected subcutaneously (SC) into the right flank of the rats. […] Tumor shrinkage/growth was measured in animals daily and animal weights were measured every other day. […] Three dimensions of tumor were measured using electronic calipers, and tumor volumes were calculated by the formula L×W^2/2. The mean±SEM of tumor volume was calculated weekly for each experimental group, and the data are expressed as mean absolute tumor volume. After the animals were sacrificed, the subcutaneous tumors were excised intact from the rats to determine the tumor weight in grams and photographed to visualize differences in tumor morphology and compare size. A portion of the excised tumors was snap-frozen by immersion in liquid nitrogen and stored at −80° C. until further use.
The animals were treated with the same drug treatment regimens and euthanized as described previously. […] At the endpoint (prior to the onset of death), the animals were euthanized, and the survival curves were plotted in a Kaplan-Meier survival curve.

[3] = system: NK cells, monocytes and macrophages in PBMC and spleen; experiment: Flow cytometry of immune cells in PBMC and spleen of xenografted rats; assay type: in vivo, rat; settings: for NK cell numbers in PBMC and spleen: CD161a+ NK cells, flow cytometry
Procedure: Peripheral blood mononuclear cells (PBMC) from control and drug-treated rats were isolated from freshly obtained EDTA whole blood by density gradient purification (Lymphoprep™, Stemcell Technologies™, Vancouver, BC, Canada) using 15 mL SepMate™ tubes (Stemcell Technologies™) as per the manufacture's protocol. The pelleted cells (PBMC) were counted in a hemocytometer and assayed for viability by the trypan blue dye exclusion method. PBMC cell pellets from 3 animals in each group were pooled, washed three times with PBS, and finally resuspended in 2 ml RPMI medium containing 10% heat-inactivated FBS (HI-FBS) and used for NK cell cytotoxicity. Aliquots of PBMC were frozen down at −80° C. by resuspending cells in freezing media containing HI-FBS and 10% DMSO in aliquots of 5-10×10^6 cells/mL using Nalgene Mr. Frosty Cryo 1° C. freezing containers (Thermo Fisher Scientific) before storage in liquid nitrogen. For flow cytometric analysis, frozen PBMC was thawed and resuspended in RPMI-1640 and was evaluated for viability by trypan blue, and all were […], then washed with PBS before starting flow cytometer experiments.
Tumor-infiltrating immune cells were collected from MDA-MB-231 cell xenograft tumors to examine and compare the immune cell population among control and drug-treated animals. Briefly, single-cell suspensions of tumor tissue were achieved by mincing the tissue with a scalpel blade using a crisscross method, ground with 1-ml of ACK lysing buffer to remove red blood cells. The cell suspensions were filtered through a 70-micron sieve and then washed with PBS. Cells from the tumor were collected and dispersed with 100 μl of PBS and stained by the addition of fluorescence-conjugated antibodies. For flow cytometry experiments, single-cell suspension derived from tumors, PBMC, and splenocytes were used to characterize the immune cell population. Fluorophore-conjugated antibodies were used to detect surface markers of specific cell types and markers are as follows: for NK cells (CD161a (10/78)), tissue macrophage (RT1B (OX-6)), dendritic cells (CD103 (OX-62)), peripheral monocytes (CD11b (ED8)), B cells (CD45RA (OX-33)), and DAPI (Sigma) was used to exclude dead cells.
Immune cells from the tumor, PBMC, and splenocyte samples were examined by following the gating strategy as described below. First, side scatter area (SSC-A) versus forward scatter area (FSC-A) were used to exclude cellular debris, then forward scatter height (FSC-H) versus FSC-A were used to select single cells. […] Additional negative controls (isotype control and fluorescence minus one (FMO)) were also used to determine any non-specific binding in the present study. The data collected from each sample were exported and analyzed using FlowJo™ version 10.7.

[4] = system: plasma cytokines and chemokines; experiment: Plasma cytokines multiplex immunoassay; assay type: in vivo, rat
Text: After the end of the drug treatment period, plasma samples from control and drug-treated rats were processed and used for cytokine detection. Cytokines were quantified in plasma samples using the ProcartaPlex multiplex immunoassay technology. These immunoassays are bead-based assays for protein quantification based on the principles of a sandwich Elisa with the use of Luminex® xMAP® (multianalyte profiling) technology. The Rat Cytokine & Chemokine 22-plex ProcartaPlex Panel is a preconfigured multiplex immunoassay kit that measures 22 protein targets using Luminex xMAP technology. Plasma samples were diluted with universal assay buffer (1:1) and added into a 96-well flat bottom plate to the magnetic beads. The plate was sealed and covered before incubation of 2 hours at room temperature with 500 rpm shaking. After inserting the plate into the handheld magnetic plate washer, the plate was washed 3 times using a specific wash buffer. 25 μL of detection antibody mixture was to the plate and incubated it for 30 minutes at room temperature at 500 rpm. The plate was washed 3 times. Then 50 μL of SAPE solution were added to the plate before a novel 30-minute incubation at room temperature at 500 rpm. The plate was washed 3 times. Finally, 120 μL of reading buffer were add to the plate and incubated for 5 minutes at room temperature at 500 rpm before reading and analyzing with the Luminex™ instrument (MAGPIX® xPONENT®, R&D System, ThermoFisher). Median fluorescence index (MFI) was calculated and presented.

| SMILES | cell migration [1] | mean life span (survival) [2] | NK cell numbers in PBMC and spleen [3] | IFN-γ [4] | chemokines RANTES and MCP-1 [4] | macrophage numbers in spleen ([3]; RT1B+ macrophages) | inflammatory cytokines and chemokines G-CSF/CSF-3, IL-1 alpha, IL-10, IL-6, IL-5, Gro-α, TNF-α, MCP-3, and IL-17A [4] |
| --- | --- | --- | --- | --- | --- | --- | --- |
| O=C1CC[C@@]2(O)[C@H]3Cc4ccc(O)c5c4[C@@]2(CCN3CC2CC2)[C@H]1O5 [NTX, 17-(cyclopropylmethyl)-4,5α-epoxy-3,14-dihydroxymorphinan-6-one] | significant but moderate inhibitory effects | 45 days | increased | elevated | inhibited | – | – |
| CC(C)NCC(O)COc1cccc2ccccc12 (stereo not shown) [PRO, propranolol] | significant but moderate inhibitory effects | 45 days | increased | elevated | inhibited | reduced | inhibited |
| CC1(C)SSC(C)(C)[C@@H](NC(=O)[C@@H](N)Cc2ccc(O)cc2)C(=O)NCC(=O)N[C@@H](Cc2ccccc2)C(=O)N[C@H]1C(=O)O [DPDPE, (D-Pen^2, D-Pen^5)-enkephalin] | significant but moderate inhibitory effects | 40 days | increased | – | inhibited | – | – |
